According to PubChem BioAssay AID1919016 (Molecular Pharmacology Branch, DTP, NCI, 2023):
Where “and” joins values, the source holds several entries; their conditions need not be identical. Equal entries are not always repeated.

Test system: NCI-H196 complex spheroid growth, percent test/control
Test: Anticancer human tumor NCI-H196 cell line growth inhibition [AhR];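 note: seven days of drug exposure starting three days after plating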;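 for viability, T/C: 100% = DMSO vehicle control wells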
Details: for viability, T/C: stronger effect = lower value
Excerpt: Multicellular complex tumor spheroid response to aryl hydrocarbon receptor antagonists in combination with a variety of drugs and investigational agents in selected tumor cell lines
The current study was undertaken to assess response to aryl hydrocarbon receptor antagonists in combination with standard-of-care drugs and investigational agents in solid tumor complex spheroid models. Complex spheroids include a stromal component modeled by human endothelial cells (HUVEC) and fibroblasts modeled by human mesenchymal stem cells (MSCs). The concentration ranges selected for each drug and investigational agent were based upon clinically achievable concentrations if the clinical Cmax of the agent was known.
Compounds. The drugs and investigational agents: BAY 2416964 (NSC825713), GNF351 (NSC835774), CH-223191 (NSC835775), CPI-455 (NSC825282), aza-TdCyd (NSC777586), decitabine (NSC127716), belinostat (NSC758774), entinostat (NSC756642), pevonedistat (NSC761192), tazemetostat (NSC777109), talazoparib (NSC765396), olaparib (NSC753686), selinexor (NSC780203), nedisertib (M3814, NSC802822), bortezomib (NSC756655), venetoclax (NSC766270), doxorubicin (NSC123127), elimusertib (BAY189344, NSC800525), ceralasertib (AZD6738, NSC777638), TAK-243 (NSC785004), alisertib (NSC759677), etoposide (NSC141540), topotecan (NSC609699), eribulin (NSC707389), gemcitabine (NSC613327), carboplatin (NSC241240), cisplatin (NSC119875), and SN-38 (NSC673596) were obtained from the National Cancer Institute (NCI) Developmental Therapeutics Program Chemical Repository (32). The FDA-approved anticancer drug set is available from the Developmental Therapeutics Program at https://dtp.cancer.gov/organization/dscb/obtaining/available plates.htm. […] The stock solutions were prepared in dimethyl sulfoxide (DMSO, Sigma-Aldrich, St. Louis, MO, cat. D2650), except for the platinum compounds which were prepared in saline (Quality Biological, Gaithersburg, MD, cat. 114-055-101), at 800-fold the tested concentration and stored at -70 degrees C prior to their use. All drugs and investigational agents were tested over a range starting from a high concentration at or near the clinical Cmax and decreasing in half-log increments. If the clinical Cmax for an agent had not been determined, the highest concentration tested was 10 microM (Table 1).
Cell Culture. All cells were maintained in an incubator at 37 degrees C and 5% CO2 with 95% humidity. The PDC lines were cultured according to standard operating procedures established by the NCI PDMR (https://pdmr.cancer.gov). Briefly, all PDCs were thawed and cultured in Matrigel-coated flasks prepared with a working solution of 1X Ham's F-12 nutrient mix, without supplementation (Invitrogen, Waltham, MA, cat. 11765054), 100 U/mL penicillin-streptomycin (Invitrogen, cat. 15140122), and 2.5% Matrigel (Corning Inc., Corning, NY, cat. 354248) for the first three passages. All PDCs were cultured in complete DMEM/F-12 media containing advanced DMEM/F-12 (Invitrogen, cat. 12634028), 4.9% defined fetal bovine serum, heat inactivated (HyClone Laboratories Inc., Logan, UT, cat. SH30070.03HI), 389 ng/mL hydrocortisone (Sigma-Aldrich, cat. H4001), 9.7 ng/mL human EGF recombinant protein (Invitrogen, cat. PHG0313), 23.4 microg/mL adenine (Sigma-Aldrich, cat. A2786), 97.3 U/mL penicillin-streptomycin (Invitrogen, cat. 15140122), 1.9 mM L-glutamine (Invitrogen, cat. 25030081), and 9.7 microM Y-27632 dihydrochloride (Tocris Bioscience, Bristol, United Kingdom, cat. 1254). The PDCs were cultured in complete DMEM/F12 media without 10 microM Y-27632 dihydrochloride for at least two passages prior to the screen. The established cell lines NCI-H1341 and […] were cultured in DMEM/F-12, HEPES (Invitrogen, cat. 11330032), 5% defined fetal bovine serum (HyClone Laboratories Inc., cat. SH30070.03), ITS premix universal culture supplement [insulin (5 microg/mL), transferrin (5 microg/mL), and selenious acid (5 ng/mL)] […]

SMILES | viability, T/C (compound 0.0316 µM) | viability, T/C (compound 0.1 µM) | viability, T/C (compound 0.316 µM) | viability, T/C (compound 1 µM) | viability, T/C (compound 3.16 µM) | viability, T/C (compound 10 µM) | IC50 (curve of compound) | IC50 (compound alone, run of 08/08/2022) | IC50 (compound alone, run of 08/22/2022) | IC50 (compound alone, run of 08/16/2022)
CC(C)c1c(-c2ccccc2)nc2c(C#N)c[nH]n2c1=O | 97.3% and 97% and 111% | 104% and 102% and 106% | 109% and 92.1% and 112% | 102% (2×) and 101% | 101% and 102% and 110% | 103% and 97.7% and 96.4% | > 10 µM | – | – | –
CC(CO)NC(=O)c1cc(-c2ccc(Cl)cc2)nn(-c2cnn(C)c2)c1=O (configuration not stated) | – | – | – | 105% [middle of 21 runs] | 106% [middle of 19 runs] | – | – | > 10 µM | – | –
CC1(C)CCC(CN2CCN(c3ccc(C(=O)NS(=O)(=O)c4ccc(NCC5CCOCC5)c([N+](=O)[O-])c4)c(Oc4cnc5[nH]ccc5c4)c3)CC2)=C(c2ccc(Cl)cc2)C1 | 98.2% and 106% and 89% | 110% and 103% and 101% | 109% and 97.2% (2×) | 109% and 103% and 96.6% | 93.8% and 103% and 99.2% | 104% and 72.5% and 89.6% | > 10 µM | – | – | –
CC1COCCN1c1cc(C2(S(C)(=N)=O)CC2)nc(-c2ccnc3[nH]ccc23)n1 (configuration not stated) | 99.9% and 98.5% and 104% | 100% and 104% and 96% | 104% (2×) and 95.2% | 88% and 95.2% and 97.4% | 97.7% and 93.7% and 85% | 69.4% and 81% and 77.6% | > 10 µM | – | – | –
COc1cc(Nc2ncc3c(n2)-c2ccc(Cl)cc2C(c2c(F)cccc2OC)=NC3)ccc1C(=O)O | 91.6% and 84.6% and 104% | 92.1% and 90.5% and 106% | 109% and 92.9% and 107% | 117% and 90.2% and 116% | 114% and 120% and 121% | 125% and 108% and 132% | > 10 µM | – | – | –
COc1ccc([C@@H](O)c2cc(-c3ncnc4cc(N5CCOCC5)ccc34)c(F)cc2Cl)nn1 | 100% and 96% and 105% | 97.1% and 92.7% and 93.5% | 97% and 91.1% and 94.3% | 89.2% and 84.2% and 89.9% | 85.3% and 81.3% and 89.7% | 77.3% and 69% and 71.9% | > 10 µM | – | – | –
Cc1ccccc1N=Nc1ccc(NC(=O)c2ccnn2C)c(C)c1 | – | 96.4% [middle of 20 runs] | 98% [middle of 20 runs] | – | 95.8% [middle of 20 runs] | 93.3% [middle of 20 runs] | – | – | > 10 µM | –
Cc1cncc(-c2nc(NCCc3c[nH]c4ccccc34)c3ncn(C(C)C)c3n2)c1 | – | 96.5% [middle of 20 runs] | 99% [middle of 20 runs] | 101% [middle of 20 runs] | 106% [middle of 20 runs] | – | – | – | – | > 10 µM
NS(=O)(=O)OCC1CC(n2ccc3c(NC4CCc5ccccc54)ncnc32)CC1O (configuration not stated) | 78.8% and 89.8% and 79.4% | 71.8% and 85.1% and 80.3% | 92% and 82% and 79.9% | 52.6% and 59.9% and 65.8% | 74.1% and 65.6% and 55.6% | 69.5% and 70.9% and 55.7% | > 10 µM | – | – | –
O=C(C=Cc1cccc(S(=O)(=O)Nc2ccccc2)c1)NO | 93.5% and 93.7% and 104% | 107% and 95.2% and 101% | 78.8% and 87.2% and 93.9% | 61.2% and 73.3% and 75.5% | 21.6% and 27.8% and 22.7% | 0.64% and 0.72% and 0.55% | 1.32 µM and 1.79 µM and 1.73 µM | – | – | –
